Results on 4 molecules are retold here after patent US11136409B2, “Compositions and methods for identification, assessment, prevention, and treatment of AML using USP10 biomarkers and modulators” (Dana-Farber Cancer Institute, Inc., priority 2016, dated 2021).

Broadly, the IC50 is the midpoint of a concentration-inhibition curve.

The target in assay [1] is T1, human USP10 (residues 376-798) (Homo sapiens, UniProt Q14694).
T1 construct: A construct of human USP10 covering residues 376-798 in the pET28a vector; His-tag (cleaved yes); made in house; host or cells: E. coli BL21 (DE3)
T1 sequence (Q14694 376-798): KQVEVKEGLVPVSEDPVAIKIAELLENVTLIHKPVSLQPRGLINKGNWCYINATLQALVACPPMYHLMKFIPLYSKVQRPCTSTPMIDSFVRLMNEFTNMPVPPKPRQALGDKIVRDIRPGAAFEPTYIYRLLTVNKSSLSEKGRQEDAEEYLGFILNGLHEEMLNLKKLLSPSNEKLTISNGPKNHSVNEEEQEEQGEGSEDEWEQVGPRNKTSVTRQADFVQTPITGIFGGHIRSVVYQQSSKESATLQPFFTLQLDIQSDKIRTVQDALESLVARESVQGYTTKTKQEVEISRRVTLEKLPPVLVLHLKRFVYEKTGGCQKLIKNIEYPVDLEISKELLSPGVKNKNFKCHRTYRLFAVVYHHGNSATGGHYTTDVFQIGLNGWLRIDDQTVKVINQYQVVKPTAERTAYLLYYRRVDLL
As to the kind of experiment: In vitro USP10 activity assay (Ubiquitin-AMC). The following applies: biochemical assay, FIG. 13B. Format: biochemical. The procedure: Protein expression and purification. A construct of human USP10 covering residues 376-798 in the pET28a vector was over-expressed in E. coli BL21 (DE3) in TB medium in the presence of […] of kanamycin. Cells were grown at 37° C. to an OD of 0.8, cooled to 17° C., induced with 500 μM isopropyl-1-thio-D-galactopyranoside, incubated overnight at 17° C., collected by centrifugation, and stored at −80° C. Cell pellets were sonicated in buffer A (50 mM HEPES (pH 7.5), 300 mM NaCl, 10% glycerol, 10 mM Imidazole, and 3 mM BME) and the resulting lysate was centrifuged at 30,000×g for 30 min. Ni-NTA beads (Qiagen) were mixed with lysate supernatant for 30 min and washed with buffer A. Beads were transferred to an FPLC-compatible column and the bound protein was washed with 15% buffer B (50 mM HEPES (pH 7.5), 300 mM NaCl, 10% glycerol, 300 mM Imidazole, and 3 mM BME) and eluted with 100% buffer B. Thrombin was added to the eluted protein and incubated at 4° C. overnight. The sample was then passed through a HiPrep 26/10 desalting column (GE Healthcare) pre-equilibrated with buffer A without imidazole, and the eluted protein was subjected to a second Ni-NTA step to remove His-tag and Thrombin. The eluent was concentrated and passed through a Superdex® 200 10/300GL column (GE Healthcare) in a buffer containing 20 mM HEPES (pH 7.5), 150 mM NaCl, and 1 mM DTT. Fractions were pooled, concentrated to 20 mg/ml, and frozen at −80° C.
In vitro USP10 activity assay. Recombinant USP10, residues 376-798, was tested for its activity in a Ubiquitin-AMC assay in presence or absence of inhibitors. For this assay, 10 nM USP10 were pre-incubated with different concentrations of inhibitors or DMSO as a control in 50 mM HEPES pH7.6, 0.5 mM EDTA, 11 uM ovalbumin, and 5 mM DTT. The reaction was incubated for 6 hours at room temperature prior to the addition of 2 uM Ubiquitin-AMC (Boston Biochem) substrate. The initial rate of the reaction was measured by collecting fluorescence data at one minute intervals over 30-minute period using a CLARIOstar® fluorescence plate reader at excitation and emission wavelength of 345 and 445 nm, respectively. The calculated initial rate values were plotted against inhibitor concentrations to determine IC50 values.

Assay [2] relates to mutant FLT3-expressing cells. As to the kind of experiment: Dynamic BH3 profiling (mitochondrial priming). It counts as cell-based, human. The following applies: cytochrome c release in response to Bim peptide, 14 h; compared to wt or null FLT3-expressing cells. Here is the method:
To determine drug-induced changes in mitochondrial priming, dynamic BH3 profiling was performed as previously described in Montero et al. (2015) Cell 160:977-989 and Pan et al. (2014) Cancer Discov. 4:362-375. Briefly, 0.4×10^6 cells/well were exposed to drug treatment for 14 hours. At the end of incubation time, cells were washed in PBS, pelleted at 500×g for 5 min, and resuspended in MEB buffer. Fifteen μl of cell suspension was added to each well of 384 well plate containing 15 μl of MEB buffer containing 20 μg/mL digitonin and BH3 peptides at twice their final concentration, and the mixture was incubated for 60 min at 26° C. to allow mitochondrial depolarization. Peptide exposure was then terminated by adding 10 μl 4% formaldehyde in PBS for 15 min, followed by neutralization with N2 buffer (1.7M Tris, 1.25M glycine, pH 9.1) for 10 min. In order to determine cytochrome C levels, anti-cytochrome C clone 6H2.B4 conjugated to Alexa Fluor® 647 (BD Bioscience) was diluted 1:50 in 10× staining buffer (10% BSA, 2% Tween-20 and 0.02% sodium azide in PBS) and 10 μl of this antibody-containing buffer was added to each well for a final dilution of 1:400. Cells were stained overnight at 4° C. in dark and data were acquired on a BD LSRFortessa™ analyzer (BD Biosciences). Priming change (Δ) was calculated by comparing cytochrome C abundance in treated cells to that of DMSO-treated control cells.

Assay [3] deals with FLT3-ITD-positive AML primagraft cells. Briefly: FLT3 immunoblot in ex vivo-treated AML primagraft cells. It counts as cell-based, human. The following applies: 21 hours of treatment; concentration of 20. The procedure: (§1) Protein lysate preparation, immunoblotting, and immunoprecipitation were carried out as previously described in Weisberg et al. (2002) Cancer Cell 1:433-443.
On the technique in general: A western blot detects proteins with antibodies after separation by electrophoresis.

Another assay relates to Ba/F3-D835Y cells. Briefly: Immunoblot of FLT3 in Ba/F3-D835Y cells. Format: cell-based, murine.
Source text: FLT3/Flk-2 (C-20) (sc-479) and Ub (P4D1) (mouse, sc-8017) were purchased from Santa Cruz Biotechnology, Inc. (Dallas, Tex.) and used at 1:1000 dilution for immunoblotting. Anti-pTyr (mouse, clone 4G10) was purchased from Upstate Biotechnology (Lake Placid, N.Y.) and was used at 1:1000 dilution. Anti-HAUSP/USP7 antibody (rabbit, ab4080) and anti-ubiquitin antibody (rabbit, ab7780) were purchased from Abcam (Cambridge, Mass.) and used at 1:1000 dilution.
as §1

Another assay concerns the target USP7 (Homo sapiens, UniProt Q93009). Briefly: MALDI TOF DUB assay with diubiquitin substrate. Format: biochemical. The following applies: diubiquitin as substrate, same assay as USP10. The procedure:
Thirty-one human DUBs were freshly diluted in the reaction buffer (40 mM Tris-HCl, pH 7.6, 5 mM DTT, 0.005% BSA) at different concentrations (see Table 10). […] 0.48 μl of di-ubiquitin topoisomers were added to the reaction mixture to initiate the reaction. The reaction was sealed and incubated for 30 min at room temperature and stopped by adding TFA to a final concentration of 2% (v/v).
Mass spectrometry data was acquired on an UltrafleXtreme MALDI-TOF mass spectrometer (Bruker Daltonics) with Compass 1.3 control and processing software. The sample carrier was taught before each analysis to optimize and centre laser shooting. […] Samples were analysed in automatic mode (AutoXecute, Bruker Daltonics). […] An amount of 3,500 shots were summed up in “random walk” and with “large” smartbeam laser focus. Spectra were automatically calibrated on the ^15N-Ub m/z and processed using smoothing (Savitzky-Golay algorithm) and baseline subtraction (‘TopHat’) for reproducible peak annotation on non-resolved isotope distributions: one cycle, 0.2 m/z for the width. For area calculation, the complete isotopic distribution was taken into account. An in-house made script was used to report—^15N and mono-ubiquitin areas; plotting of graphs, calculation of standard deviation and coefficient of variation (%) were processed in Microsoft Excel.

In the next assay the test system is USP10. Briefly: USP10 target engagement in cells, labeling with HA-Ub-VS. It counts as cell-based. The following applies: lysates from live treated cells.

USP7, sequence (Q93009 whole entry): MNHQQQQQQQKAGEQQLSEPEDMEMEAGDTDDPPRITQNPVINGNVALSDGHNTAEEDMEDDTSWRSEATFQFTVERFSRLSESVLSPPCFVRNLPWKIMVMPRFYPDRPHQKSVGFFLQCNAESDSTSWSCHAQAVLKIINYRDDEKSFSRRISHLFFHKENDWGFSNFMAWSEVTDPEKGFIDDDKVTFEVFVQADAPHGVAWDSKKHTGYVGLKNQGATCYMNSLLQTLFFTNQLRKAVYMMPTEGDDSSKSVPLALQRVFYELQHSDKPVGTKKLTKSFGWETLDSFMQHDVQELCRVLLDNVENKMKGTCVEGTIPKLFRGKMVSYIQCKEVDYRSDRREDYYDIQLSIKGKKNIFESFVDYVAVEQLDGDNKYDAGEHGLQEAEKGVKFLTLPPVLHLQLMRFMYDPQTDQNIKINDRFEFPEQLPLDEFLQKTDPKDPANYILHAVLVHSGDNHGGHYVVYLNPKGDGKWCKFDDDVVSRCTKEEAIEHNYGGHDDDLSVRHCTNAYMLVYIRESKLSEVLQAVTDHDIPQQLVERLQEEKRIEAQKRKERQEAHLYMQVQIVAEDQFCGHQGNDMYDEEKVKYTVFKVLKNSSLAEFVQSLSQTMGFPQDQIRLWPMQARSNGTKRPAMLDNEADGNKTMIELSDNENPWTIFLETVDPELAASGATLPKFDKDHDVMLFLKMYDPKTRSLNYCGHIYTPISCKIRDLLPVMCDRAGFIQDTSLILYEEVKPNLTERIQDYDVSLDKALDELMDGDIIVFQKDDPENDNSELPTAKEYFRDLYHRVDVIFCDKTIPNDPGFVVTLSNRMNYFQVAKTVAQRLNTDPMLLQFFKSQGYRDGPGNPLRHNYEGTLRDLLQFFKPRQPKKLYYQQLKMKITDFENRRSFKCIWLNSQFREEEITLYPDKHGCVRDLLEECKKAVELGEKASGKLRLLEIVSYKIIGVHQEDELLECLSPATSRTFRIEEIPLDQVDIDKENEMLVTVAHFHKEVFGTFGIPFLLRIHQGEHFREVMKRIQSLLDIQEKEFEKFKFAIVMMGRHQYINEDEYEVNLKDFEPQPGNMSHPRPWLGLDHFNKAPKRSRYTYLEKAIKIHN

`CCCN(CCC)CCCNC(=O)c1ccc2c(Cl)c3c(nc2c1)CCCC3` [C598-0466]: in assay [1], the “USP10 inhibition compared with HBX19818” value is “more potent”.

For the molecule `O=C(NCCCN1CCN(Cc2ccccc2)CC1)c1ccc2nc3c(c(Cl)c2c1)CCCC3` [C598-0563], the “USP10 inhibition compared with HBX19818” value in assay [1] is given as “comparably to HBX19818”.

For the molecule `CCN(CCCNC(=O)c1ccc2nc3c(c(Cl)c2c1)CCC3)Cc1ccccc1` [C673-0105], in assay [1], the “USP10 inhibition compared with HBX19818” value is “comparably to HBX19818”. The “Mitochondrial priming for apoptosis” value in assay [2] is reported as “more strongly”.

Turning to `CN(CCCNC(=O)c1ccc2nc3c(c(Cl)c2c1)CCCC3)Cc1ccccc1` [HBX19818, reference compound], the “FLT3 levels via immunoblotting” value in assay [3] was “no trace of FLT3”. For the same molecule, the FLT3 protein levels entry in the assay on Ba/F3-D835Y cells was “more modest loss of FLT3 protein”. In addition, at USP7, half-maximal inhibition (IC50) was put at 57 µM. Besides, the “Mitochondrial priming for apoptosis” value in assay [2] is recorded as “increased priming”. Besides, in the assay on USP10, the “Inhibitor concentration blocking USP10 labeling by HA-Ub-VS” value is “low micromolar range”.
